Earlier results as cited in patent US12551521B2, “Compositions including pine bark extract, berryfruit extract and a source of l-theanine and uses thereof” (AREPA IP LIMITED, priority 2017, dated 2026).

Details: in vivo

- blood-brain barrier crossing: known to cross the blood-brain barrier
SMILES: CCNC(=O)CC[C@H](N)C(=O)O [L-theanine, γ-glutamylethylamide]
